Laboratory results: US4173650A, “Cis-2-benzoyl-3-hydroxy-2-alkenonitriles as anti-inflammatory agents” (American Cyanamid Company, priority 1978, dated 1979)
Read-outs that look alike come from different tables or passages of the source.

How the values were obtained:
[1] = test system: Carrageenin-Induced Edema; experiment: Carrageenin-induced edema in the rat; type: in vivo, rat (Royal Hart, Wistar strain); settings: by gavage, 5 hours after drug (4 hours after carrageenin challenge); dose not given
Procedure: In determining the acute anti-inflammatory activity of the cis-2-benzoyl-3-hydroxy-2-alkenonitriles of the present invention, Royal Hart, Wistar strain rats, ranging in weight from 80 to 90 grams were used. The rats were fasted overnight prior to dosing but had free access to water. The test compounds were administered in aqueous suspension, by gavage, in a volume of 1.7 ml. per 50 grams of rat [corresponds to hydration volume used by Winter, et al., Proc. Soc. […] The phlogistic agent used was carrageenin prepared as a sterile 1% suspension in 0.9% aqueous sodium chloride for routine testing. A volume of 0.05 ml. was injected through a 26 gauge needle into the plantar tissue of the right hind paw. Measurements were made 5 hours after drug administration (4 hours after carrageenin challenge). Volumes of both the normal and carrageenin inflammed feet were determined. The difference between the two measurements is considered to be the increased edema due to the carrageenin administration. Results are expressed as a C/T efficacy ratio (edema of control animals/edema of treated animals).

[2] = test system: Adjuvant Induced Arthritis; experiment: Adjuvant-induced arthritis in the rat; type: in vivo, rat (Royal Hart, Wistar strain); settings: for inhibition in vivo at 50 mg/kg: oral 50 mg./kg.; for inhibition in vivo at 25 mg/kg: oral 25 mg./kg.
Procedure: Groups of three Royal Hart, Wistar strain rats weighing 200±10 g. each were injected intradermally in the right hind paw with Freund's adjuvant (dried human tubercle bacilli in a mineral oil vehicle) at a dose of 2 mg./kg. of body weight. The test compounds were administered orally in a 1.5% starch vehicle at various doses once daily on days 0 to 13 post challenge. Control rats were treated in a similar manner, but given only starch vehicle. On the 14th and 21st day post challenge the diameter of the injected paw was measured by micrometer caliper. The volume of inflamed paws were estimated from these measurements and the effects of each compound are expressed as percent inhibition of swelling as compared to controls. Table II records the results of these tests conducted with representative compounds of this invention and known anti-inflammatory agents. The active compounds of this invention suppress the progression of the arthritis and associated joint deterioration.
Adjuvant-induced experimental polyarthritis is a specific systemic disease of the rat which shares interesting similarities with rheumatoid arthritis. Specifically the histology of the two diseases bears a remarkable resemblence as shown by C. M. Pearson et al., Am. J. Path. 42, 73 (1963). E. M. Glenn, Am. J. Vet. Res. 27, (116), 339 (1966) has classified adjuvant-induced polyarthritis as a crippling and permanent deformity resulting from diffuse connective tissue involvement areound certain susceptible joints in the rat. Zahiri et al, Can. Med. Ass. J., 101, 269 (1969) have shown that the fusiform swelling of the distal joints is associated with edema, congestion and synovitis including pannus formation, all of which precede the ultimate destruction of bone and cartilage. Furthermore, Zahiri et al., indicate that the cartilage destruction in the joint is due to an invasive pannus which originates in the marginal synovium and extends across the articular surface to erode it. […] The most pointed reference showing the relationship between arthritis and joint deterioration is an X-Ray analysis of adjuvant arthritis in the rat by Blackham et al., Agents and Actions 7, 145 (1977). In a similar manner, inhibition of the progress of arthritis in paws of rats treated with the compounds of this invention also lessens associated joint deterioration.

[3] = test system: Migration Inhibitory Factor; experiment: Migration inhibitory factor in the guinea pig (capillary tube macrophage migration assay, direct MIF assay); type: cell-based, guinea pig (male Hartley); settings: number of tests wherein the percent reversal of inhibition =15%
Text: Rheumatoid arthritis is a chronic inflammatory disease that is characterized by the migration of lymphocytes, macrophages and polymorphonuclear leukocytes to the sites of inflammation. The migration of lymphocytes and macrophages and their multiplication in situ is one reason for the very large increase in size of the normally thin synovial membrane, the membrane that encloses the joint space. The synovial membrane that has been transformed in this manner, slowly grows over the aricular surfaces and causes the destruction of the articular cartilage and other connective tissue structures of the joint. One of the mechanisms for the destruction of articular cartilage by the synovium is believed to be through the release of various hydrolytic enzymes by the resident macrophages which have been immobilized and activated by migration inhibitory factor (MIF). Macrophages stimulated by MIF are termed "activated macrophages" and undergo the following changes: (a) increased glucose oxidation, (b) increased ruffling of plasma membrane and increased spreading of cells, (c) synthesis and secretion of neutral proteases, (d) release of preformed lysosomal enzymes, (e) decreased migration from a capillary tube. […] Drugs that can therefore block the release of MIF by lymphocytes or the activation of macrophages by MIF should be clinically effective in retarding the destructive joint damage which occurs in rheumatoid arthritis. Drugs can be tested as MIF inhibitors by using the capillary tube migration assay as follows.
Male Hartley guinea pigs, weighing between 300 and 600 grams, are injected intraperitoneally with 25 ml Marcal 52 Oil® (Humble Oil). Three to four days later, the guinea pigs are sacrificed by decapitation, the peritoneum opened, and the exudate aspirated into a separatory funnel after the addition of 50 ml of cold Hank's solution. This is repeated two times. The oil phase is discarded and the cell supsension is spun down at 1200 r.p.m. for ten minutes. The cells are resuspended in Hank's solution and spun down at 900 r.p.m. for five minutes. This is repeated two times. Viability of the cells is then determined using trypan blue. In all experiments, viability is greater than 90%. The cell concentration is then adjusted to give a 10% packed cell volume by the addition of the appropriate amount of MEM® (Gibco 109)+15% guinea pig serum. […] To determine the area of cell migration out of the capillary tube onto the chamber surface, the chambers are projected onto a microscope screen, the area traced onto paper, and then measured using a planimeter. […]

[4] = test system: arthritic paw swelling; settings: cited from earlier work
[5] = 336 h, once daily days 0 to 13, read-out: % Inhibition of Swelling, Day 14
[6] = 504 h, once daily days 0 to 13, read-out: % Inhibition of Swelling, Day 21

CC(=O)Oc1ccccc1C(=O)O [Aspirin, reference compound]
C/T Ratio (edema of control animals/edema of treated animals) [1]: 2.86

C/C(O)=C(\C#N)C(=O)c1cccc(Cl)c1C [Cis-2-(3-chloro-o-toluoyl)-3-hydroxycrotononitrile]
inhibition in vivo at 50 mg/kg [2, 5]: 61%
inhibition in vivo at 50 mg/kg [2, 6]: 17%
#Actives/Total Tests ([3]; 5×10^-5 M): 3/5

C/C(O)=C(\C#N)C(=O)c1cccc(F)c1 [Cis-2-(m-fluorobenzoyl)-3-hydroxycrotononitrile]
inhibition in vivo at 50 mg/kg [2, 5]: 48%
inhibition in vivo at 50 mg/kg [2, 6]: 37%
C/T Ratio (edema of control animals/edema of treated animals) [1]: 1.61

C/C(O)=C(\C#N)C(=O)c1ccccc1Cl [Cis-2-(o-chlorobenzoyl)-3-hydroxycrotononitrile]
inhibition in vivo at 50 mg/kg [2, 5]: 39%
inhibition in vivo at 50 mg/kg [2, 6]: 29%

C/C(O)=C(\C#N)C(=O)c1ccccc1F [Cis-2-(o-fluorobenzoyl)-3-hydroxycrotononitrile]
C/T Ratio (edema of control animals/edema of treated animals) [1]: 2.18

C/C(O)=C(\C#N)C(=O)c1ccc(Br)cc1 [Cis-2-(p-bromobenzoyl)-3-hydroxycrotononitrile]
#Actives/Total Tests ([3]; 10 μg./ml.): 2/3

C/C(O)=C(\C#N)C(=O)c1ccc(Cl)cc1 [Cis-2-(p-chlorobenzoyl)-3-hydroxycrotonitrile]
inhibition in vivo at 25 mg/kg [2, 5]: 58%
inhibition in vivo at 25 mg/kg [2, 6]: 15%

C/C(O)=C(\C#N)C(=O)c1ccc(F)cc1 [Cis-2-(p-fluorobenzoyl)-3-hydroxycrotononitrile]
inhibition in vivo at 25 mg/kg [2, 5]: 65%
inhibition in vivo at 25 mg/kg [2, 6]: 30%
#Actives/Total Tests ([3]; 5×10^-5 M): 4/4

COc1ccccc1C(=O)/C(C#N)=C(/C)O [Cis-3-hydroxy-2-(o-anisoyl)crotononitrile]
C/T Ratio (edema of control animals/edema of treated animals) [1]: 1.30
#Actives/Total Tests ([3]; 5×10^-5 M): 4/5

COc1ccc(C(=O)/C(C#N)=C(/C)O)cc1 [Cis-3-hydroxy-2-(p-methoxybenzoyl)crotononitrile]
C/T Ratio (edema of control animals/edema of treated animals) [1]: 1.59

C/C(O)=C(\C#N)C(=O)c1ccc(C(F)(F)F)cc1 [Cis-3-hydroxy-2-(α,α,α-trifluoro-p-toluoyl)crontononitril]
inhibition in vivo at 25 mg/kg [2, 5]: 68%
inhibition in vivo at 25 mg/kg [2, 6]: 5%
C/T Ratio (edema of control animals/edema of treated animals) [1]: 1.97

C/C(O)=C(\C#N)C(=O)c1ccc(C)cc1 [Cis-3-hydroxy-2-p-toluoylcrotononitrile, Cis-3-hydroxy-2-(p-toluoyl)crotonitrile]
C/T Ratio (edema of control animals/edema of treated animals) [1]: 1.41

COc1ccc2c(c1)c(CC(=O)O)c(C)n2C(=O)c1ccc(Cl)cc1 [Indomethacin]
effect on joint and bone deterioration ([4]; S. Wong et al. 1973, G. R. Bobalick et al. 1974): prevent joint and bone deterioration
effect on arthritic paw swelling ([4]; literature): inhibit arthritic paw swelling
